Values after ≈ are worked out from the molar mass of the structure shown.
Assays:
T. gallinae trophozoites = assay: Anti-Trichomonas activity assay (MTT viability); type: cell-based; conditions: pure compounds
Method: The anti-Trichomonas (AT) activity assay utilized T. gallinae trophozoites from an isolate obtained from a wood pigeon by Dr. […] EOs and pure compounds were solved in DMSO (Sigma, Madrid, Spain) (<1% final concentration). […] Trophozoites/promastigotes viability was assessed using the modified MTT colorimetric assay, as described previously in the literature, with results further validated by microscopic examination. The plate was analyzed in a spectrophotometer at a wavelength of 570 nm. The percentage of antiparasitic activity was calculated as growth inhibition, using the following formula: % AT = 100 - [(Ap - Ab) ÷ (Ac - Ab)] × 100, where Ap is the absorbance of the tested product, Ab the absorbance of the blank and Ac the absorbance of the control wells (culture without treatment). […] Metronidazole (Acros Organics, Madrid, Spain) served as a reference compound for anti-Giardia activity and Anti-Trichomonas activity and amphotericin B for anti-Leishmania activity. Data was analyzed using STATGRAPHICS Centurion XIX ([…].com) (Statgraphics Technologies, Inc., The Plains, VA, USA). The mammalian cells and trophozoites viability were tested with each compound in a dose-response experiment to calculate their relative potency (CC50 or IC50 value, respectively).

[1] = Cytotoxicity of pure compounds on Vero cells (MTT); type: cell-based; conditions: African green monkey, Vero cells (kidney cells); 48 h exposure; 50% Vero cell mortality; MTT; read-out: Vero Cells CC50
Method: African green monkey kidney cells (Vero cells) were maintained in Dulbecco’s modified Eagle’s minimal essential medium (DMEM) (Thermo Fisher Scientific, Waltham, MA, USA) supplemented with 10% FBS and 1% Pen-Strep at 37 °C under a humidified atmosphere of 5% CO2/95% air.
Cells seeded in 96-well flat-bottom microplates with 100 μL medium per well (initial densities 10^4 cells per well) were exposed for 48 h to serial dilutions (100, 75, 50, 25, 10 and 1 µg/mL) of the tested compounds in DMSO (<1% final concentration). Cell viability was analyzed by the MTT colorimetric assay method, and the purple-colored formazan precipitate was dissolved with 100 μL of DMSO [23].
(§1) Data was analyzed using STATGRAPHICS Centurion XIX (https://www.statgraphics.com) (Statgraphics Technologies, Inc., The Plains, VA, USA). The mammalian cells and trophozoites viability were tested with each compound in a dose–response experiment to calculate their relative potency (CC50 or IC50 value, respectively). IC50 (μg/mL) expresses the dose of EOs, extracts or pure compounds needed to produce 50% mortality of trophozoites, while CC50 (μg/mL) expresses the dose of compounds necessary to produce 50% mortality of Vero cells.

[2] = system: L. infantum promastigotes; assay: Anti-Leishmania activity assay on promastigotes (MTT viability); type: cell-based; conditions: pure compounds
Method: Anti-Leishmania (AL) activity was assessed on L. infantum promastigotes (MCAN/ES/98/LLM-722), kindly provided by Dr. J.M. Requena from CBM-CSIC, as well as on L. infantum (M/CAN/ES/96/BCN150 zymodeme MON-1), strain isolated from a dog with active visceral leishmaniasis. L. infantum promastigotes (MCAN/ES/98/LLM-722) were cultured in RPMI medium supplemented with 15% FBS and 10 μg/mL of hemin (Acros Organics, Madrid, Spain), grown at 26 °C. Promastigotes in logarithmic growth were seeded in 96-well flat-bottom plates at a volume of 100 μL of culture per well and incubated for 48 h. Promastigotes for macrophage infection (M/CAN/ES/96/BCN150 zymodeme MON-1) were maintained at 26 °C in Schneider’s insect medium (Lonza, Basel, Switzerland) supplemented with 10% FBS and 100 U/mL penicillin and 100 μg/mL streptomycin (Lonza, Basel, Switzerland) (Pen-Strep). Promastigotes in the stationary phase of growth (5–6 days) were washed twice in phosphate-buffered saline at 2700× g for 10 min at 22 °C and employed for macrophage infection.
EOs and pure compounds were solved in DMSO (Sigma, Madrid, Spain) (<1% final concentration). […] Trophozoites/promastigotes viability was assessed using the modified MTT colorimetric assay, as described previously in the literature, with results further validated by microscopic examination. The plate was analyzed in a spectrophotometer at a wavelength of 570 nm. The percentage of antiparasitic activity was calculated as growth inhibition, using the following formula: % AT = 100 − [(Ap − Ab) ÷ (Ac − Ab)] × 100, where Ap is the absorbance of the tested product, Ab the absorbance of the blank and Ac the absorbance of the control wells (culture without treatment).
Pure compounds were tested using the same method, although at concentrations of 100, 75, 50, 25, 10, and 1 μg/mL. Metronidazole (Acros Organics, Madrid, Spain) served as a reference compound for anti-Giardia activity and Anti-Trichomonas activity and amphotericin B for anti-Leishmania activity.
as §1

[3] = system: G. duodenalis trophozoites; assay: Anti-Giardia activity assay (MTT viability); type: cell-based; conditions: pure compounds
Method: Anti-Giardia (AG) activity assays were conducted on G. duodenalis trophozoites from the ATCC® 30957 strain (assemblage A), using flat-bottom microwell plates in quadruplicate. […] Incubation was carried out for 24 h at 37 °C. EOs and pure compounds were solved in DMSO (Sigma, Madrid, Spain) (<1% final concentration). […] Trophozoites/promastigotes viability was assessed using the modified MTT colorimetric assay, as described previously in the literature, with results further validated by microscopic examination. The plate was analyzed in a spectrophotometer at a wavelength of 570 nm. The percentage of antiparasitic activity was calculated as growth inhibition, using the following formula: % AT = 100 - [(Ap - Ab) ÷ (Ac - Ab)] × 100, where Ap is the absorbance of the tested product, Ab the absorbance of the blank and Ac the absorbance of the control wells (culture without treatment). […] Metronidazole (Acros Organics, Madrid, Spain) served as a reference compound for anti-Giardia activity and Anti-Trichomonas activity and amphotericin B for anti-Leishmania activity. Data was analyzed using STATGRAPHICS Centurion XIX ([…].com) (Statgraphics Technologies, Inc., The Plains, VA, USA). The mammalian cells and trophozoites viability were tested with each compound in a dose-response experiment to calculate their relative potency (CC50 or IC50 value, respectively).

[4] = system: intracellular amastigotes of L. infantum; assay: Infection index of DH82 macrophages infected with L. infantum (intracellular amastigotes); type: cell-based, Leishmania infantum; conditions: 1 µg/mL, 48 h
[5] = system: L. infantum promastigotes; assay: Morphological evaluation by light microscopy (Diff-Quik), L. infantum; type: cell-based, Leishmania infantum; conditions: amphotericin B at 1 µg/mL
Method: L. infantum, T. gallinae and G. duodenalis were studied at 0, and 48 h after treatment with germacrone (100 µg/mL), and controls (DMSO 1%, metronidazole at 10 µg/mL for T. gallinae and G. duodenalis and amphotericin B at 1 µg/mL for L. infantum).
For L. infantum and T. gallinae, cultures in the exponential growth phase (10^7 promastigotes/mL and 5 × 10^5 trophozoites/mL, respectively) were treated in 96-well microplates. At each time point, quadruplicates were assigned per condition: growth control, germacrone, and the corresponding positive control (metronidazole or amphotericin B). For microscopy, quadruplicate wells corresponding to the same condition/time point were pooled prior to centrifugation to obtain sufficient biomass and a representative pellet for smear preparation. Pooled samples per condition/time point were centrifuged, resuspended in FBS and spread onto microscope slides. Once dried, samples were fixed and stained with Diff-Quik (Medion Diagnostic AG, Düdingen, Switzerland) following the manufacturer’s instructions. Additionally, three wells per condition (triplicates) were used for the MTT assay, with absorbance measured by spectrophotometry after 48 h.
Morphological changes were analyzed using light microscopy. Experiments were performed as independent biological replicates on different plates, and one Diff-Quik stained smear was obtained per condition and time point per biological replicate. For morphometric analysis, a total of 30 trophozoites per condition and time point were measured across the independent biological replicates and were selected by consecutive sampling during a predefined serpentine (zig-zag) scan across the preparation. Up to two eligible trophozoites per field (intact, well-focused and non-overlapping) were measured in sequential fields until n = 30 was reached, avoiding subjective selection of “representative” cells. Overlapping, partially visible, out-of-focus, edge-of-field, or debris-obscured trophozoites were excluded a priori. Trophozoites were photographed using a researcher’s mobile phone mounted to the microscope ocular. Calibration was performed at the same magnification using a stage micrometre and applied in ImageJ v. 1.54d. One Diff-Quik stained smear was obtained per condition/time point per biological replicate Cell length, cell width, cell surface, nuclear length, nuclear width, axoneme (only Giardia), and length of axostyle (only T. gallinae) were measured with ImageJ software, and the data were recorded in an Excel database for statistical analysis.
The Shapiro–Wilk test was used to assess the normality of the morphological variables. When data followed a normal distribution, Student’s t-test was applied; otherwise, non-parametric tests, such as the Mann–Whitney U test, was used. Values of p < 0.05 were considered significant. For the morphological analysis, the mean, standard deviation, median, and interquartile range were calculated using SPSS version 20 (IBM Corp., Armonk, NY, USA).

[6] = system: L. infantum promastigotes; design: method as in doi:10.1080/10412905.2013.820669; conditions: cited from earlier work
Vero cells = system: Vero cells; design: method as in PMID 36672727; conditions: cited from earlier work

SMILES	IC50 (T. gallinae trophozoites) [µg/mL]	CC50 at 48 h [1] [µg/mL]	IC50 [2] [µg/mL]	IC50 [3] [µg/mL]	Infection Index ([4]; % infected x amastigotes per infected cell)	% Infected Cells ([4]; mean ± SD) [%]	nº Amastigotes/Infected Cell ([4]; mean ± SD)	morphological alterations of promastigotes [5]	L. infantum (pm) IC50 [6]	Vero Cells CC50 (Vero cells)
CC(C)=C1CC(=O)[C@]2(C)CC[C@H]2[C@@H](C)CC1=O [Compound 3]	> 100	> 100	35.5 (≈ 151 µM)	> 100	–	–	–	–	–	–
C=C[C@]1(C)CC(=O)C(=C(C)C)C[C@H]1C(=C)C [Compound 1, β-elemenone]	> 100	> 100	> 100	> 100	–	–	–	–	–	–
C/C1=C\CC2(OC2(C)C)C(=O)C/C(C)=C/CC1 (stereo not drawn) [Compound 4]	51.6 (≈ 220 µM)	> 100	88.8 (≈ 379 µM)	> 100	–	–	–	–	–	–
C[C@@H]1[C@H](O)[C@@H](C)/C=C/C=C/C=C/C=C/C=C/C=C/C=C/[C@H](O[C@@H]2O[C@H](C)[C@@H](O)[C@H](N)[C@@H]2O)C[C@@H]2O[C@](O)(C[C@@H](O)C[C@@H](O)[C@H](O)CC[C@@H](O)C[C@@H](O)CC(=O)O[C@H]1C)C[C@H](O)[C@H]2C(=O)O [AmB, amphotericin B]	–	–	–	–	8.9 ± 0.0	6.4 ± 3.7	1.4 ± 0.7	strong morphological alterations	0.01 [22] µg/mL	7.11 [21] µg/mL
